Data taken from patent US8506942B2, “Hair care composition” (Conopco, Inc., priority 2007, dated 2013).

Biological target: T1, trypsin (Bos taurus, UniProt P00760)
T1 construct: gene PRSS1
T1 sequence (P00760 24-246): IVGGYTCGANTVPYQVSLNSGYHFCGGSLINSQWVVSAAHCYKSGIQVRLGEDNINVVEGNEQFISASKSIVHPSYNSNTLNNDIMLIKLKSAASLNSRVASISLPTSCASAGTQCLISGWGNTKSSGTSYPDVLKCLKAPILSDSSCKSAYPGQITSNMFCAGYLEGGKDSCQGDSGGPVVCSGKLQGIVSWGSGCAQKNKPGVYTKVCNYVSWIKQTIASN
Assay: EnzChek Protease Assay measuring trypsin activity (trypsin inhibition)
Assay type: biochemical
Details: for Trypsin activity (RFU): control (trypsin only) 1446 RFU; for Normalised activity: control (trypsin only) = 1.0
Text: Hair growth follows a cycle of activity: anagen (growth phase), catagen (transitional/regression phase), telogen (dormant) followed by renewal of anagen. The telogen phase lasts approximately 3 months. […] The major biochemical activity at this stage is one of proteolysis whereby the proteins anchoring the hair fibre to the structure of the follicle are degraded (Paus & Krejic-Papa J Dermatol Sci 1994 Vol. 7, pp. 202-209; Krejic-Papa et al J Invest Derm Vol. 106, p 557). These enzymes are of the serine protease family of proteases.
Trypsin is a serine protease.
The following experiment uses trypsin as a model for the serine proteases involved in the process of hair fall (exogen). Successful inhibition the activity of the serine proteases such as trypsin is thought to delay the onset of exogen and decrease the amount of hair fall.
The EnzChek Protease Assay (E6639, Molecular Probes) was used to measure trypsin activity.

CC(C)(C)C(=O)C(Oc1ccc(Cl)cc1)n1ccnc1 (centres unmarked) [Climbazole]
Trypsin activity (RFU) (Climbazole 0.0225%): 1656 RFU
Normalised activity (Climbazole 0.0225%): 1.15
Trypsin activity (RFU) (Climbazole 0.045%): 1553 RFU
Normalised activity (Climbazole 0.045%): 1.07
effect on trypsin activity (summary of the tables of Examples 1-6): no effect (or perhaps a positive effect)
